Source: patent US6737383B1, “Herbicidal oxadiazolidines” (priority 1999, dated 2004)

What was measured:
giant foxtail = assay: Test B pre/postemergence giant foxtail; format: in vivo, Setaria faberii
Summary of the method: (§1)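 Test chemicals in a non-phytotoxic solvent mixture with surfactant were sprayed preemergence onto planted seeds and postemergence onto plants 2 to 18 cm tall (1- to 4-leaf stage). After twelve to sixteen days in a greenhouse, injury was visually rated against untreated controls from 0 (no effect) to 10 (complete control).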

winter wheat [1] = assay: Test E winter wheat; format: in vivo, Triticum aestivum; details: Preemergence
green foxtail = assay: Test E green foxtail; format: in vivo, Setaria viridis; details: Preemergence
rape = assay: Test B pre/postemergence rape; format: in vivo, Brassica napus
Summary of the method: as §1

wild oat = assay: Test E wild oat; format: in vivo, Avena fatua; details: Preemergence
pigweed = assay: Test B pre/postemergence pigweed; format: in vivo, Amaranthus retroflexus
Summary of the method: as §1

blackgrass = assay: Test E blackgrass; format: in vivo, Alopecurus myosuroides; details: Preemergence
Italian ryegrass = assay: Test E Italian ryegrass; format: in vivo, Lolium multiflorum; details: Preemergence
morningglory = assay: Test B pre/postemergence morningglory; format: in vivo, Ipomoea hederacea
Summary of the method: as §1

winter barley = assay: Test E winter barley; format: in vivo, Hordeum vulgare; details: Preemergence
winter wheat [2] = assay: Test E winter wheat; format: in vivo, Triticum aestivum; details: Postemergence
Method: […] All plant species were grown using normal greenhouse practices. Crop and weed species include annual bluegrass (Poa annua), blackgrass (Alopecurus myosuroides), black nightshade (Solanum nigra), chickweed (Stellaria media), common poppy (Papaver rhoeas), deadnettle (Lamium amplexicaule), downy brome (Bromus tectorum), field violet (Viola arvensis), galium (Galium aparine), green foxtail (Setaria viridis), Italian ryegrass (Lolium multiflorum), jointed goatgrass (Aegilops cylindrica), kochia (Kochia scoparia), lambsquarters (Chenopodium album), littleseed canarygrass (Phalaris minor), rape (Brassica napus), redroot pigweed (Amaranthus retroflexus), Russian thistle (Salsola kali), scentless chamomile (Matricaria inodora), spring barley (Hordeum vulgare), sugar beet (Beta vulgaris), sunflower (Helianthus annuus), ivyleaf speedwell (Veronica hederaefolia), spring wheat (Triticum aestivum), winter wheat (Triticum aestivum), wild buckwheat (Polygonum convolvulus), wild mustard (Sinapis arvensis), wild oat (Avena fatua), windgrass (Apera spica-venti) and winter barley (Hordeum vulgare).
Treated plants and untreated controls were maintained in a greenhouse for approximately 21 to 28 days, after which all treated plants were compared to untreated controls and visually evaluated. […] A dash response (-) means no test result.

[3] = Preemergence, Rate 62 g/ha, scale of 0 to 10 where 0 is no effect and 10 is complete control
[4] = Preemergence, Rate 250 g/ha, scale of 0 to 10 where 0 is no effect and 10 is complete control
[5] = Preemergence, Rate 500 g/ha, scale of 0 to 10 where 0 is no effect and 10 is complete control
[6] = Rate 62 g/ha, Postemergence, scale of 0 to 10 where 0 is no effect and 10 is complete control
[7] = Rate 125 g/ha, Postemergence, scale 0 to 10
[8] = Rate 125 g/ha, Preemergence, scale of 0 to 10 where 0 is no effect and 10 is complete control
[9] = Rate 500 g/ha, Postemergence, scale 0 to 10, 0 no effect, 10 complete control
[10] = Rate 500 g/ha, 0 to 100 scale where 0 is no effect and 100 is complete control
[11] = Rate 1000 g/ha, 0 to 100 scale, 0 no effect, 100 complete control
[12] = Rate 500 g/ha, 0 to 100 scale, 0 is no effect, 100 is complete control
[13] = Postemergence, Rate 125 g/ha, scale 0 to 10, 0 is no effect, 10 is complete control
[14] = Postemergence, Rate 250 g/ha, scale 0 to 10, 0 is no effect, 10 is complete control
[15] = Preemergence, Rate 62 g/ha, scale 0 to 10 (0 no effect, 10 complete control)
[16] = Rate 125 g/ha, 0 to 100 scale (0 no effect, 100 complete control)
[17] = Rate 500 g/ha, 0 to 100 scale (0 no effect, 100 complete control)

Cc1nc(C)c(Cn2c(=O)on(C(=O)N(c3ccc(F)cc3F)C(C)C)c2=O)s1 [Compound 233]
Giant foxtail plant response rating (giant foxtail; [3]): 7 | Giant foxtail plant response rating (giant foxtail; [4]): 9 | Plant response rating, Giant foxtail (giant foxtail; [5]): 10 | Giant foxtail plant response rating (giant foxtail; [6]): 0 | Giant foxtail plant response rating (giant foxtail; [7]): 0 | Giant foxtail plant response rating (giant foxtail; [8]): 7 | Plant response rating (0 to 10; 0 is no effect, 10 is complete control), Giant foxtail (giant foxtail; Rate 250 g/ha, Postemergence): 3 | Giant foxtail plant response rating (giant foxtail; [9]): 6 | Wheat (winter) plant response rating (0 to 100 scale) (winter wheat [1]; Rate 250 g/ha): 50 | Plant response rating, Wheat (winter) (winter wheat [1]; [10]): 50 | Plant response rating, Wheat (winter) (winter wheat [1]; [11]): 60 | Green foxtail plant response rating (0 to 100 scale) (green foxtail; Rate 250 g/ha): 100 | Plant response rating, Green foxtail (green foxtail; [10]): 100 | Plant response rating, Green foxtail (green foxtail; [11]): 100 | Rape plant response rating (rape; [3]): 0 | Rape plant response rating (rape; [4]): 0 | Plant response rating, Rape (rape; [5]): 3 | Rape plant response rating (rape; [6]): 2 | Rape plant response rating (rape; [7]): 2 | Rape plant response rating (rape; [8]): 0 | Plant response rating (0 to 10; 0 is no effect, 10 is complete control), Rape (rape; Rate 250 g/ha, Postemergence): 2 | Rape plant response rating (rape; [9]): 3 | Wild oat plant response rating (0 to 100 scale) (wild oat; Rate 250 g/ha): 55 | Plant response rating, Wild oat (wild oat; [10]): 60 | Plant response rating, Wild oat (wild oat; [11]): 60 | Redroot pigweed plant response rating (pigweed; [3]): 3 | Redroot pigweed plant response rating (pigweed; [4]): 7 | Plant response rating, Redroot pigweed (pigweed; [5]): 8 | Redroot pigweed plant response rating (pigweed; [6]): 0 | Redroot pigweed plant response rating (pigweed; [7]): 0 | Redroot pigweed plant response rating (pigweed; [8]): 6 | Plant response rating (0 to 10; 0 is no effect, 10 is complete control), Redroot pigweed (pigweed; Rate 250 g/ha, Postemergence): 2 | Redroot pigweed plant response rating (pigweed; [9]): 4 | Blackgrass plant response rating (0 to 100 scale) (blackgrass; Rate 250 g/ha): 50 | Plant response rating, Blackgrass (blackgrass; [10]): 60 | Plant response rating, Blackgrass (blackgrass; [11]): 85 | I. Ryegrass plant response rating (0 to 100 scale) (Italian ryegrass; Rate 250 g/ha): 40 | Plant response rating, I. Ryegrass (Italian ryegrass; [10]): 50 | Plant response rating, I. Ryegrass (Italian ryegrass; [11]): 60 | Morningglory plant response rating (morningglory; [3]): 0 | Morningglory plant response rating (morningglory; [4]): 0 | Plant response rating, Morningglory (morningglory; [5]): 2 | Morningglory plant response rating (morningglory; [6]): 3 | Morningglory plant response rating (morningglory; [7]): 3 | Morningglory plant response rating (morningglory; [8]): 0 | Plant response rating (0 to 10; 0 is no effect, 10 is complete control), Morningglory (morningglory; Rate 250 g/ha, Postemergence): 3 | Morningglory plant response rating (morningglory; [9]): 8 | Barley (winter) plant response rating (0 to 100 scale) (winter barley; Rate 250 g/ha): 30 | Plant response rating, Barley (winter) (winter barley; [10]): 50 | Plant response rating, Barley (winter) (winter barley; [11]): 60 | Plant response rating, Wheat (winter) (winter wheat [2]; Rate 1000 g/ha, 0 to 100 scale where 0 is no effect and 100 is complete control): 60 | Wheat (winter) plant response rating (winter wheat [2]; Rate 250 g/ha, 0 to 100 scale where 0 is no effect and 100 is complete control): 50 | Plant response rating, Wheat (winter) (winter wheat [2]; [12]): 55

CC(C)N(C(=O)n1oc(=O)n(CC2CCOC2)c1=O)c1ccc(F)cc1 (stereo not drawn) [Compound 375]
Plant response rating, Giant foxtail (giant foxtail; [13]): 6 | Plant response rating, Giant foxtail (giant foxtail; [14]): 8 | Plant response rating, Giant foxtail (giant foxtail; [15]): 10 | Giant foxtail plant response rating (0 to 10 scale) (giant foxtail; Preemergence, Rate 125 g/ha): 10 | Giant foxtail plant response rating (giant foxtail; [4]): 10 | Giant foxtail plant response rating (giant foxtail; [5]): 10 | Giant foxtail plant response rating (giant foxtail; [6]): 0 | Plant response rating, Giant foxtail (giant foxtail; [9]): 9 | Plant response rating, Wheat (winter) (winter wheat [1]; [16]): 30 | Plant response rating, Wheat (winter) (winter wheat [1]; Rate 250 g/ha, 0 to 100 scale): 40 | Plant response rating, Wheat (winter) (winter wheat [1]; [17]): 50 | Plant response rating, Green foxtail (green foxtail; [16]): 50 | Plant response rating, Green foxtail (green foxtail; Rate 250 g/ha, 0 to 100 scale): 60 | Plant response rating, Green foxtail (green foxtail; [17]): 70 | Plant response rating, Rape (rape; [13]): 0 | Plant response rating, Rape (rape; [14]): 0 | Plant response rating, Rape (rape; [15]): 0 | Rape plant response rating (0 to 10 scale) (rape; Preemergence, Rate 125 g/ha): 2 | Rape plant response rating (rape; [4]): 6 | Rape plant response rating (rape; [5]): 8 | Rape plant response rating (rape; [6]): 0 | Plant response rating, Rape (rape; [9]): 2 | Plant response rating, Wild oat (wild oat; [16]): 55 | Plant response rating, Wild oat (wild oat; Rate 250 g/ha, 0 to 100 scale): 60 | Plant response rating, Wild oat (wild oat; [17]): 70 | Plant response rating, Redroot pigweed (pigweed; [13]): 0 | Plant response rating, Redroot pigweed (pigweed; [14]): 0 | Plant response rating, Redroot pigweed (pigweed; [15]): 10 | Redroot pigweed plant response rating (0 to 10 scale) (pigweed; Preemergence, Rate 125 g/ha): 10 | Redroot pigweed plant response rating (pigweed; [4]): 10 | Redroot pigweed plant response rating (pigweed; [5]): 10 | Redroot pigweed plant response rating (pigweed; [6]): 0 | Plant response rating, Redroot pigweed (pigweed; [9]): 3 | Plant response rating, Blackgrass (blackgrass; [16]): 20 | Plant response rating, Blackgrass (blackgrass; Rate 250 g/ha, 0 to 100 scale): 60 | Plant response rating, Blackgrass (blackgrass; [17]): 65 | Plant response rating, I. Ryegrass (Italian ryegrass; [16]): 50 | Plant response rating, I. Ryegrass (Italian ryegrass; Rate 250 g/ha, 0 to 100 scale): 70 | Plant response rating, I. Ryegrass (Italian ryegrass; [17]): 65 | Plant response rating, Morningglory (morningglory; [13]): 1 | Plant response rating, Morningglory (morningglory; [14]): 5 | Plant response rating, Morningglory (morningglory; [15]): 0 | Morningglory plant response rating (0 to 10 scale) (morningglory; Preemergence, Rate 125 g/ha): 0 | Morningglory plant response rating (morningglory; [4]): 0 | Morningglory plant response rating (morningglory; [5]): 0 | Morningglory plant response rating (morningglory; [6]): 1 | Plant response rating, Morningglory (morningglory; [9]): 6 | Plant response rating, Barley (winter) (winter barley; [16]): 35 | Plant response rating, Barley (winter) (winter barley; [17]): 30 | Plant response rating, Wheat (winter) (winter wheat [2]; Rate 125 g/ha, 0 to 100 scale, 0 is no effect, 100 is complete control): 35 | Plant response rating, Wheat (winter) (winter wheat [2]; Rate 250 g/ha, 0 to 100 scale, 0 is no effect, 100 is complete control): 35 | Plant response rating, Wheat (winter) (winter wheat [2]; [12]): 50
